US20240109843A1, “BENZALDEHYDE COMPOUNDS WITH DIRECT POLYMER DESTABILIZING EFFECTS TO TREAT SICKLE CELL DISEASE” (VIRGINIA COMMONWEALTH UNIVERSITY, priority 2018, published 2024)

Key:
[1] = test system: RBCs from donors with homozygous SCD; assay: Oxygen-independent sickle inhibition in SS blood suspensions under anoxia (100% nitrogen); assay type: cell-based, human; settings: anoxia
Method in brief: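 After room-air re-oxygenation for 15 min to reverse sickling, SS blood suspensions were held under 100% nitrogen for 1 h (screening) or up to 2.5 h (time course), with aliquots fixed at set intervals. Sickled versus non-sickled cells were counted by bright-field microscopy to calculate sickle inhibition.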

[2] = ADME / bioavailability assessment; settings: in vivo
Hb [3] = biological target: T1, Hb (Homo sapiens, UniProt P69905); assay: Hb modification (drug-adduct formation) in SS blood suspensions by cation-exchange HPLC; assay type: binding; design: Blood suspensions from subjects with homozygous SCD; from tissue; host or cells: blood suspensions (20% hematocrit) from donors with homozygous SCD; lysates of the treated red cells; settings: 2 mM, 4 biological replicates
Method in brief: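 Homozygous SCD blood at 20% hematocrit in Hemox buffer with glucose and BSA was incubated with compound (0-2 mM) 1 h at 37° C in air, then up to 2 h hypoxia (2.5% O2). Lysates, with or without 50 mM sodium borohydride reduction, were analysed by weak cation-exchange HPLC at A410 nm for Hb-drug adducts.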
Target sequence in this assay (P69905 2-142): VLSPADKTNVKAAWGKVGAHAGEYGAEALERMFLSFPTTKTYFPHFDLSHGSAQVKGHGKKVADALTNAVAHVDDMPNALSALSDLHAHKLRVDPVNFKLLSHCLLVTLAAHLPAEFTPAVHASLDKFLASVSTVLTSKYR
Target sequence in this assay (P68871 with tags, fused parts or gaps E7V partner): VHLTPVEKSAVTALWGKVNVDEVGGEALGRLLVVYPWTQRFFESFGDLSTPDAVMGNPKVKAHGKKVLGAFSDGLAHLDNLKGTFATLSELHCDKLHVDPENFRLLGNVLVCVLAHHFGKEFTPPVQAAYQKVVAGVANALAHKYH

sickle red blood cells = assay: Antisickling study with human sickle blood under 2.5% oxygen; assay type: cell-based; settings: Homo sapiens, Erythrocyte, sickle RBCs, 2.5% oxygen, read-out: sickling inhibition
Description: Blood suspensions from subjects with homozygous SCD (resuspended in Hemox™ buffer to a final hematocrit 20%) were incubated under air in the absence or presence of the compounds (0.5 mM, 1 mM and 2 mM) at 37° C. for 1 h to ensure that binding had attained equilibrium. The suspensions were then incubated under hypoxic conditions (2.5% oxygen/97.5% nitrogen) at 37° C. for 1 h. Aliquot samples were fixed with 2% glutaraldehyde solution without exposure to air, and then subjected to microscopic morphological analysis of bright field images (at 40× magnification) of single layer cells on an Olympus BX40 microscope fitted with an Infinity Lite B camera (Olympus), and the coupled Image Capture software. The residual samples were washed in phosphate-buffer saline, and hemolyzed in hypotonic lysis buffer for subsequent Hb-modification and oxygen equilibrium analyses.
The studies described above were conducted using normal whole blood. Next, we investigated whether the improvement in Hb oxygen affinity and the compounds sustained activity also translated to similar effects in SS blood from SCD patients. […] At 1 mM, PP8 and PP9 inhibited nearly 100% of sickling, while PP2, PP6, PP14 inhibited sickling by more than 70%. […] It is clear that the modifications of the present compounds has led to significant improvement in antisickling activity.

Hb [4] = biological target: T1, Hb; assay: Time-dependent Hb-compound adduct formation (Hb modification) in normal whole blood; assay type: binding; design: Hemoglobin modification, studies using non-sickling AA blood; from tissue; host or cells: non-sickling (AA) human blood, red blood cells; settings: 2 mM, normal adult blood, hematocrit 30%, 37° C.
Target sequence in this assay (P69905 2-142 limits assumed): as the sequence (P69905 2-142) above
Target sequence in this assay (P68871 2-147 partner limits assumed): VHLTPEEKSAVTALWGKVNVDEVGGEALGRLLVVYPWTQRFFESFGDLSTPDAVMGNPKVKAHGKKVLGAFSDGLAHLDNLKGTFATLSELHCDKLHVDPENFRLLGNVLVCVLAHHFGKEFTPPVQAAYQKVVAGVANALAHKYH

Hb [5] = biological target: T1, Hb; assay: Drug partitioning studies, fixed and unfixed Hb adducts in non-sickling AA blood; assay type: cell-based; design: Hemoglobin modification, studies using non-sickling AA blood; from tissue; host or cells: non-sickling (AA) human blood, red blood cells; settings: 2 mM
Method in brief: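 Non-sickling blood was incubated with test molecules and lysed either in water (unfixed) or in 50 mM sodium borohydride (fixed). Hb adducts were quantified by cation-exchange HPLC as a fraction of total Hb. The partitioning ratio is fixed over unfixed modification and reflects intracellular Hb binding after RBC membrane permeation.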
Target sequence in this assay (P69905 2-142 limits assumed): as the sequence (P69905 2-142) above
Target sequence in this assay (P68871 2-147 partner limits assumed): as the sequence (P68871 2-147 partner limits assumed) above

Hb [6] = biological target: T1, Hb; assay: Oxygen equilibrium curve (OEC) studies with normal whole blood; assay type: cell-based; design: Hemoglobin modification, studies using non-sickling AA blood; from tissue; host or cells: non-sickling (AA) human blood, red blood cells; settings: normal whole blood, 0.5, 1, 2 mM
Description: Oxygen equilibrium curve (OEC) studies to determine the effect of the compounds on Hb affinity for oxygen were conducted following standard procedure. Whole blood (30% hematocrit) was incubated in the absence or presence of compounds (0.5 mM, 1.0 mM and 2.0 mM) solubilized in DMSO. […] After equilibration, the sample was removed via syringe and aspirated into an ABL 700 series table top automated blood gas analyzer (Radiometer America, Inc., Westlake, OH) to determine total hemoglobin (tHb), hematocrit (Hct), pH, pCO2, partial pressure of oxygen (pO2), and the Hb-O2 saturation (sO2) values. The measured values of pO2 and sO2 at each oxygen saturation level were then subjected to nonlinear regression analysis using the software Scientist (Micromath, Salt Lake City UT) with the following equation: […]
Aromatic aldehydes are known to prevent hypoxia-induced Hb S polymerization by increasing the Hb affinity for oxygen. We therefore tested the PP compounds in a dose-dependent manner (0.5, 1, 2 mM) for their effect on Hb oxygen binding property. […] These findings confirmed that the potent in vitro activity previously seen in TD7 was at least conserved in the novel PP compounds.
Target sequence in this assay (P69905 2-142 limits assumed): as the sequence (P69905 2-142) above
Target sequence in this assay (P68871 2-147 partner limits assumed): as the sequence (P68871 2-147 partner limits assumed) above

intracellular Hb = biological target: T2, intracellular Hb (Mus musculus, UniProt P01942); assay: In vivo modification of intracellular Hb in wild-type mice; design: species or system C57BL/6 mice; settings: IP 150 mg/kg, 30% PEG300, 6 h
T2 construct: from tissue; host or cells: blood (red cell lysates) of dosed C57BL/6 mice
Description: We tested in vivo pharmacologic (pharmacodynamics) effects of select PP compounds in C57BL/6 mice. The animals were treated with a single intraperitoneal (IP) (150 mg/kg body weight) dose of PP6, PP10, PP14, and TD7, which were formulated with 30% PEG300. Blood samples were obtained prior to treatment (0) and 1, 3 and 6 h post-treatment, via submandibular bleeding, and subjected to hemolysis using standard methods. Clarified lysates, free of cell debris and red blood cell ghosts were analyzed by cation-exchange HPLC to determine the levels of drug-modified hemoglobin (adducts); and to conduct oxygen equilibrium studies to determine degrees of shift in p50 values using methodologies described earlier for in vitro studies on human samples. In a subsequent follow-up experiment, a new excipient obtained from Catalent Pharma Solutions was also used to formulate PP14 and used for a single intraperitoneal (IP) and oral (150 mg/kg body weight) dose. Blood samples were obtained prior to treatment (0) and 1, 3 or 5 h post-treatment, via submandibular bleeding, and used to determine the levels of drug-modified hemoglobin (adducts); and to conduct oxygen equilibrium studies to determine degrees of shift in p50 values as described above.

T2 sequence (P01942 2-142 limits assumed): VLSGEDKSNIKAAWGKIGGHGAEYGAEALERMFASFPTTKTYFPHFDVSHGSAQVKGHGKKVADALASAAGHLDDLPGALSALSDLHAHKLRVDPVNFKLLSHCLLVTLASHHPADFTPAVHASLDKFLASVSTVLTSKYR
T2 sequence (P02088 2-147 partner limits assumed): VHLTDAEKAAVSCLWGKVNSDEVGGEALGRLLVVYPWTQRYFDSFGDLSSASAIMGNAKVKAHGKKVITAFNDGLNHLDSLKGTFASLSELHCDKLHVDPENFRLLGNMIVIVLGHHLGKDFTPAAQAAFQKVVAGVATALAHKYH

Structure (SMILES)	polymer destabilizing effect / sickle inhibition in anoxia (in words) [1]	bioavailability [2]	Hb Modification (%) (Hb [3])	inhibition at 500 µM (sickle red blood cells; 0.5 mM) [%]	inhibition at 1000 µM (sickle red blood cells; 1 mM) [%]	loss of Hb modification activity at 24 hours (Hb [4]) [%]	Fixed Adducts (%) (Hb [5]; 6 biological replicates)	Unfixed Adduct (%) (Hb [5]; 6 biological replicates)	Partitioning Ratio (%) (Hb [5]; fixed relative to unfixed adducts)	effect on Hb oxygen binding property (OEC) (Hb [6])	modified Hb (intracellular Hb) [%]
O=Cc1c(O)cccc1OCc1ccccc1 [Reference A, 2-(benzyloxy)-6-hydroxybenzaldehyde, reference compound]	exhibits potent polymer destabilizing effects	not bioavailable	–	–	–	–	–	–	–	–	–
COc1ccc(OCc2cccc(CO)n2)c(C=O)c1 [TD-7, reference compound]	–	–	72.5	26	47	45	80.9 ± 2.5	73.5 ± 1.5	103.7 ± 7.5	relatively similar potency as most of the best PP compounds	1.5±0.3
